From patent US10441626B2, “Microparticles comprising GNRH made by PGSS” (Ferring B.V., priority 2013, dated 2019)
Where a SMILES comes first, the peptide text is derived from it. [ ]: non-standard residue; d: D form. The star is where a group is joined. dPhe(4-NHCONH2) = NC(=O)Nc1ccc(C[C@@H](N)C(=O)O)cc1; Dihydroorotyl(S) = O=C1C[C@@H](C(=O)*)NC(=O)N1; dPhe(4-Cl) = N[C@H](Cc1ccc(Cl)cc1)C(=O)O; Phe(4-NH2) = Nc1ccc(C[C@H](N)C(=O)O)cc1; d2Nal = N[C@H](Cc1ccc2ccccc2c1)C(=O)O; Lys(iPr) = CC(C)NCCCC[C@H](N)C(=O)O; NMeY = CN[C@@H](Cc1ccc(O)cc1)C(=O)O; d3Pal = N[C@H](Cc1cccnc1)C(=O)O

Tests used:
[1] = human, in vivo; cited from earlier work
[2] = in vivo
[3] = Target plasma level calculated for pigs; assay type: in vivo, pig
From the text: These very initial studies in this pig model are understood to represent proof of concept that formulations of the invention may be able to provide sustained release for up to three months, especially after IM administration, in a human model.

[4] = test system: testosterone; experiment: Plasma level needed to prevent testosterone breakthrough (rat); assay type: in vivo; conditions: between doses
Experimental: In the rat, the mean plasma concentration level of degarelix which is necessary to ensure there is no testosterone breakthrough between doses is 6 ng/mL, and this value was therefore selected as the target level for the present work. In other words, if the mean plasma concentration of degarelix is 6 ng/mL or greater after administration of a given formula, this is a good indicator that the formulation would be effective (for the duration of the study).

CC(=O)N[C@H](Cc1ccc2ccccc2c1)C(=O)N[C@H](Cc1ccc(Cl)cc1)C(=O)N[C@H](Cc1cccnc1)C(=O)N[C@@H](CO)C(=O)N(C)[C@@H](Cc1ccc(O)cc1)C(=O)N[C@H](CC(N)=O)C(=O)N[C@@H](CC(C)C)C(=O)N[C@@H](CCCCNC(C)C)C(=O)N1CCC[C@H]1C(=O)N[C@H](C)C(N)=O [Abarelix] (Ac-[d2Nal][dPhe(4-Cl)][d3Pal]S[NMeY][dN]L[Lys(iPr)]P[dA]-NH2)
allergic reaction risk [1]: risk of serious allergic reactions, including anaphylaxis with hypotension and syncope

CC(=O)N[C@H](Cc1ccc2ccccc2c1)C(=O)N[C@H](Cc1ccc(Cl)cc1)C(=O)N[C@H](Cc1cccnc1)C(=O)N[C@@H](CO)C(=O)N[C@@H](Cc1ccc(NC(=O)[C@@H]2CC(=O)NC(=O)N2)cc1)C(=O)N[C@H](Cc1ccc(NC(N)=O)cc1)C(=O)N[C@@H](CC(C)C)C(=O)N[C@@H](CCCCNC(C)C)C(=O)N1CCC[C@H]1C(=O)N[C@H](C)C(N)=O [degarelix, D-Alaninamide, N-acetyl-3-(2-naphthalenyl)-D-alanyl-4-chloro-D-phenylalanyl-3-(3-pyridinyl)-D-alanyl-L-seryl-4-[[[(4S)-hexahydro-2,6-dioxo-4-pyrimidinyl]carbonyl]amino]-L-phenylalanyl-4-[(aminocarbonyl)amino]-D-phenylalanyl-L leucyl-N6-(1-methylethyl)-L-lysyl-L-prolyl] (Ac-[d2Nal][dPhe(4-Cl)][d3Pal]S[Phe(4-NH2)](Dihydroorotyl(S))[dPhe(4-NHCONH2)]L[Lys(iPr)]P[dA]-NH2)
efficacy and tolerability [2]: effective and well-tolerated without evidence of systemic allergic reactions
target level of mean degarelix concentration [3]: 8 ng/mL
mean plasma concentration necessary to ensure no testosterone breakthrough [4]: 6 ng/mL
